≈ marks a conversion by molar mass, not a printed value. Counter-ions that a name gives are not always drawn. Like-named read-outs stand apart in the source and are kept apart here.
Columns and labels:
A. baumannii = assay: Gram negative MIC protocol (OD600, LB, 24 h); conditions: for MIC: Acinetobacter baumannii
Procedure: (§1) Overnight bacterial cultures were grown in LB with no added antibiotics at 37° C. with shaking. A 1:1000 dilution of these cultures into LB was exposed to concentration gradients of compounds in 96-well plates (100 μL per well assay volume). Resulting plates were incubated at 37° C. for 24 h without shaking, and OD600 was measured at the end of the incubation. MICs were determined as the lowest concentrations at which OD600 remained at baseline.

E. coli = assay: Gram negative MIC protocol (OD600, LB, 24 h); conditions: for MIC: Escherichia coli
Procedure: as §1

H37RvMA = assay: Tuberculosis Alamar Blue/Resazurin assay (MIC); format: cell-based; conditions: read-out: WT H37Rv MTB Activity
[1] = read-out: MIC A. baumannii LB Media, A. baumannii, LB media, 24 h, OD600
[2] = read-out: MIC E. coli delta-TolC LB Media, E. coli delta-TolC, LB media, OD600
[3] = read-out: MIC WT E. coli LB Media, WT E. coli, LB media, OD600
[4] = Mycobacterium tuberculosis, H37RV, WT H37Rv MTB
[5] = read-out: MIC E. coli delta-TolC LB Media, E. coli delta-TolC strain, LB media, 24 h, OD600
[6] = read-out: MIC WT E. coli LB Media, wild-type E. coli, LB media, 24 h, OD600
[7] = Mycobacterium tuberculosis, H37RV

c1ccc(CNCCc2ccc3ccccc3n2)cc1 [B155]
MIC (A. baumannii; [1]): > 150 µM | MIC (E. coli; [2]): > 150 µM | MIC (E. coli; [3]): > 150 µM | MIC (H37RvMA; [4]): > 150 µM

COc1ccc(CC(C)NCc2ccccc2)c2ccccc12 (centres unmarked) [B201]
MIC (A. baumannii; [1]): 170 µM (≈ 51.9 µg/mL) | MIC (E. coli; [5]): 96 µM (≈ 29.3 µg/mL) | MIC (E. coli; [6]): > 300 µM | MIC (H37RvMA; [7]): 91 µM (≈ 27.8 µg/mL)

COc1cccc(CNCCC2CCCCC2)c1 [B353]
MIC (A. baumannii; [1]): > 150 µM | MIC (E. coli; [5]): > 150 µM | MIC (E. coli; [6]): > 150 µM | MIC (H37RvMA; [4]): > 150 µM

CC1CCCC(CCNCc2ccccc2)C1 (centres unmarked) [B179]
MIC (A. baumannii; [1]): > 300 µM | MIC (E. coli; [2]): 230 µM (≈ 53.2 µg/mL) | MIC (E. coli; [3]): > 300 µM | MIC (H37RvMA; [4]): 150 µM (≈ 34.7 µg/mL)

OB1OCc2ccc(CNCc3ccccc3)cc21 [B158, 6-((benzylamino)methyl)benzo[c][1,2]oxaborol-1(3H)-ol]
MIC (A. baumannii; [1]): > 150 µM | MIC (E. coli; [2]): > 150 µM | MIC (E. coli; [3]): > 150 µM | MIC (H37RvMA; [4]): > 150 µM

c1ccc2c(c1)CCN(CCC1CCCCC1)C2 [B417, 2-(2-cyclohexylethyl)-1,2,3,4-tetrahydroisoquinoline]
MIC (A. baumannii; read-out: MIC A. baumannii LB Media): > 150 µM | MIC (E. coli; [2]): > 150 µM | MIC (E. coli; [3]): > 150 µM | MIC (H37RvMA; [7]): > 150 µM

OCc1cccc(CNCCC2CCCCC2)c1 [B375]
MIC (A. baumannii; [1]): > 150 µM | MIC (E. coli; [5]): > 150 µM | MIC (E. coli; [6]): > 150 µM | MIC (H37RvMA; [4]): > 150 µM

Cc1noc(C)c1COc1ccccc1CNC(C)CC1CCCCC1 (centres unmarked) [B306]
MIC (A. baumannii; [1]): > 150 µM | MIC (E. coli; [5]): 12 µM (≈ 4.28 µg/mL) | MIC (E. coli; [6]): > 150 µM | MIC (H37RvMA; [4]): > 150 µM

CC(NCc1ccccc1)C1(C)CC1 (centres unmarked) [B149]
MIC (A. baumannii; [1]): > 150 µM | MIC (E. coli; [2]): > 150 µM | MIC (E. coli; [3]): > 150 µM | MIC (H37RvMA; [4]): > 150 µM

CC(CC1CCCCC1)NCc1ccccc1CS(=O)(=O)N[C@@H](C)C(=O)O (stereo partly drawn) [B454, ((2-(((1-cyclohexylpropan-2-yl)amino)methyl)benzyl)sulfonyl)-L-alanine]
MIC (A. baumannii; [1]): > 150 µM | MIC (E. coli; [2]): 91 µM (≈ 36.1 µg/mL) | MIC (E. coli; [3]): > 150 µM | MIC (H37RvMA; [4]): > 150 µM

CC(CC1CCCCC1)NCc1ccccc1CS(=O)(=O)N1CCN(C)CC1 (centres unmarked) [B439, 1-cyclohexyl-N-(2-(((4-methylpiperazin-1-yl)sulfonyl)methyl)benzyl)propan-2-amine]
MIC (A. baumannii; [1]): 150 µM (≈ 61.1 µg/mL) | MIC (E. coli; [2]): 12 µM (≈ 4.89 µg/mL) | MIC (E. coli; [3]): 91 µM (≈ 37.1 µg/mL) | MIC (H37RvMA; [4]): > 150 µM

CC1CCCCC1CCNCc1ccccc1 (centres unmarked) [B178]
MIC (A. baumannii; [1]): > 300 µM | MIC (E. coli; [2]): > 300 µM | MIC (E. coli; [3]): > 300 µM | MIC (H37RvMA; [4]): 55 µM (≈ 12.7 µg/mL)

c1ccc(CNCCc2ccc3cn[nH]c3c2)cc1 [B58]
MIC (A. baumannii; [1]): > 150 µM | MIC (E. coli; [2]): > 150 µM | MIC (E. coli; [3]): > 150 µM | MIC (H37RvMA; [4]): > 150 µM

CC1(C)[C@@H]2C[C@](C)(CNCc3ccccc3)C[C@@H]21 [B88]
MIC (A. baumannii; [1]): > 150 µM | MIC (E. coli; [2]): > 150 µM | MIC (E. coli; [3]): > 150 µM | MIC (H37RvMA; [4]): > 150 µM

CCOC(=O)COCCOc1ccccc1CNC(C)CC1CCCCC1 (centres unmarked) [B365]
MIC (A. baumannii; [1]): > 150 µM | MIC (E. coli; [5]): 5 µM (≈ 1.89 µg/mL) | MIC (E. coli; [6]): > 150 µM | MIC (H37RvMA; [4]): > 150 µM

CCNS(=O)(=O)Cc1ccccc1CNC(C)CC1CCCCC1 (centres unmarked) [B446, 1-(2-(((1-cyclohexylpropan-2-yl)amino)methyl)phenyl)-N-ethylmethanesulfonamide]
MIC (A. baumannii; [1]): > 150 µM | MIC (E. coli; [2]): 7 µM (≈ 2.47 µg/mL) | MIC (E. coli; [3]): 91 µM (≈ 32.1 µg/mL) | MIC (H37RvMA; [4]): > 150 µM

c1ccc(-c2ccccc2CNCCC2CCCCC2)cc1 [B229, N-(biphenyl-2-ylmethyl)-2-cyclohexylethanamine hydrochloride]
MIC (A. baumannii; [1]): 96 µM | MIC (E. coli; [5]): 7 µM | MIC (E. coli; [6]): 170 µM | MIC (H37RvMA; [4]): 33 µM

CC(CC1CCCCC1)NCc1ccccc1OCC1CNC(=O)O1 (centres unmarked) [B377]
MIC (A. baumannii; [1]): 150 µM (≈ 52 µg/mL) | MIC (E. coli; [5]): 2.3 µM (≈ 0.797 µg/mL) | MIC (E. coli; [6]): 75 µM (≈ 26 µg/mL) | MIC (H37RvMA; [4]): > 150 µM

CC(CNCc1ccccc1)N1CCc2ccccc2C1 (centres unmarked) [B130]
MIC (A. baumannii; [1]): > 150 µM | MIC (E. coli; [2]): > 150 µM | MIC (E. coli; [3]): > 150 µM | MIC (H37RvMA; [4]): > 150 µM

OC(CNCc1ccccc1)c1cccc2ccccc12 (centres unmarked) [B193]
MIC (A. baumannii; [1]): 300 µM (≈ 83.2 µg/mL) | MIC (E. coli; [2]): 300 µM (≈ 83.2 µg/mL) | MIC (E. coli; [3]): > 300 µM | MIC (H37RvMA; [4]): 150 µM (≈ 41.6 µg/mL)

c1ccc(Oc2ccccc2CNCCC2CCCCC2)cc1 [B232, 2-cyclohexyl-N-(2-phenoxybenzyl)ethanamine hydrochloride]
MIC (A. baumannii; [1]): 96 µM | MIC (E. coli; [5]): 17 µM | MIC (E. coli; [6]): 170 µM | MIC (H37RvMA; [4]): 91 µM

CC(CC1CCCCC1)NCc1ccccc1OCc1ccccc1C1CC1 (centres unmarked) [B462, 1-cyclohexyl-N-(2-((2-cyclopropylbenzyl)oxy)benzyl)propan-2-amine]
MIC (A. baumannii; [1]): 33 µM (≈ 12.5 µg/mL) | MIC (E. coli; [2]): 4 µM (≈ 1.51 µg/mL) | MIC (E. coli; [3]): > 150 µM | MIC (H37RvMA; [4]): 10 µM (≈ 3.78 µg/mL)

Cl.c1ccc(CNCC2CCCCC2)cc1 [B17]
MIC A. baumannii LB Media (A. baumannii; A. baumannii, LB media, OD600): >150 µM | MIC E. coli delta-TolC LB Media (E. coli; E. coli delta-TolC, LB media, OD600): >150 µM | MIC WT E. coli LB Media (E. coli; WT E. coli, LB media, OD600): >150 µM | MIC (H37RvMA; WT H37Rv MTB): >150 µM

CC(CC1CCCCC1)NCc1ccccc1CS(=O)(=O)NCC(=O)O (centres unmarked) [B448, ((2-(((1-cyclohexylpropan-2-yl)amino)methyl)benzyl)sulfonyl)glycine]
MIC (A. baumannii; [1]): > 150 µM | MIC (E. coli; [2]): > 150 µM | MIC (E. coli; [3]): > 150 µM | MIC (H37RvMA; [4]): > 150 µM

CC(CC1CCCCC1)NCc1ccccc1OC1CCC1 (centres unmarked) [B385, N-(2-cyclobutoxybenzyl)-1-cyclohexylpropan-2-amine]
MIC (A. baumannii; [1]): 150 µM (≈ 45.2 µg/mL) | MIC (E. coli; [5]): 2 µM (≈ 0.603 µg/mL) | MIC (E. coli; [6]): 91 µM (≈ 27.4 µg/mL) | MIC (H37RvMA; [4]): 90.9 µM (≈ 27.4 µg/mL)

CC(NCc1ccccc1)C1[C@H]2C[C@@H]3C[C@@H](C[C@H]1C3)C2 (some centres unmarked) [B191]
MIC (A. baumannii; [1]): 300 µM (≈ 80.8 µg/mL) | MIC (E. coli; [2]): 300 µM (≈ 80.8 µg/mL) | MIC (E. coli; [3]): > 300 µM | MIC (H37RvMA; [4]): > 150 µM
